Test results from ChEMBL document CHEMBL4613209, “Quinolone hybrids and their anti-cancer activities: An overview” (Eur J Med Chem, 2019).

What follows are compounds tested against Tubulin (assay: Inhibition of tubulin polymerization (unknown origin)).
Type: protein-complex assay, Homo sapiens

**Q.** How did the IC50 turn out when `C[C@H]1COc2c(N3CCN(C)CC3)c(F)cc3c(=O)c(C(=O)NCc4cn(CCCCCC(=O)NO)nn4)cn1c23` was run?
**A.** 1790 to 6360 nM

**Q.** For `C[C@H]1COc2c(N3CCN(C)CC3)c(F)cc3c(=O)c(C(=O)OCc4cn(CCCCCCCC(=O)NO)nn4)cn1c23`, which IC50 is on record?
**A.** 1790 to 6360 nM

**Q.** How did the IC50 turn out when `C[C@H]1COc2c(N3CCN(C)CC3)c(F)cc3c(=O)c(C(=O)OCc4cn(CCCCCCC(=O)NO)nn4)cn1c23` was run?
**A.** 1790 to 6360 nM

**Q.** With `C[C@H]1COc2c(N3CCN(C)CC3)c(F)cc3c(=O)c(C(=O)NCc4cn(CCCCCCCC(=O)NO)nn4)cn1c23` as the compound, how does the IC50 read?
**A.** 1790 to 6360 nM

The compounds below were run against Histone deacetylase (assay: Inhibition of HDAC (unknown origin)).
Type: protein assay, Homo sapiens

**Q.** For `C[C@H]1COc2c(N3CCN(C)CC3)c(F)cc3c(=O)c(C(=O)NCc4cn(CCCCCC(=O)NO)nn4)cn1c23`, which IC50 is on record?
**A.** 21 to 850 nM

**Q.** With `C[C@H]1COc2c(N3CCN(C)CC3)c(F)cc3c(=O)c(C(=O)OCc4cn(CCCCCCCC(=O)NO)nn4)cn1c23` as the compound, how does the IC50 read?
**A.** 21 to 850 nM

**Q.** How did the IC50 turn out when `C[C@H]1COc2c(N3CCN(C)CC3)c(F)cc3c(=O)c(C(=O)OCc4cn(CCCCCCC(=O)NO)nn4)cn1c23` was run?
**A.** 21 to 850 nM

**Q.** Which IC50 does the source give for `C[C@H]1COc2c(N3CCN(C)CC3)c(F)cc3c(=O)c(C(=O)NCc4cn(CCCCCCCC(=O)NO)nn4)cn1c23` here?
**A.** 21 to 850 nM

What follows are compounds tested on HepG2 (assay: Antiproliferative activity against human HepG2 cells by CCK8 assay).
Type: functional, cell-based

**Q.** For `C[C@H]1COc2c(N3CCN(C)CC3)c(F)cc3c(=O)c(C(=O)NCc4cn(CCCCCC(=O)NO)nn4)cn1c23`, which IC50 is on record?
**A.** 300 to 12800 nM

**Q.** With `C[C@H]1COc2c(N3CCN(C)CC3)c(F)cc3c(=O)c(C(=O)OCc4cn(CCCCCCCC(=O)NO)nn4)cn1c23` as the compound, how does the IC50 read?
**A.** 300 to 12800 nM

**Q.** Which IC50 does the source give for `C[C@H]1COc2c(N3CCN(C)CC3)c(F)cc3c(=O)c(C(=O)OCc4cn(CCCCCCC(=O)NO)nn4)cn1c23` here?
**A.** 300 to 12800 nM

**Q.** Which IC50 does the source give for `C[C@H]1COc2c(N3CCN(C)CC3)c(F)cc3c(=O)c(C(=O)NCc4cn(CCCCCCCC(=O)NO)nn4)cn1c23` here?
**A.** 300 to 12800 nM

The compounds below were run on MCF-10A (assay: Antiproliferative activity against human MCF10A cells by CCK8 assay).
Type: cell-based

**Q.** How did the IC50 turn out when `C[C@H]1COc2c(N3CCN(C)CC3)c(F)cc3c(=O)c(C(=O)NCc4cn(CCCCCC(=O)NO)nn4)cn1c23` was run?
**A.** > 100000 nM

**Q.** `C[C@H]1COc2c(N3CCN(C)CC3)c(F)cc3c(=O)c(C(=O)OCc4cn(CCCCCCCC(=O)NO)nn4)cn1c23` was tested. Which IC50 did it give?
**A.** > 100000 nM

**Q.** With `C[C@H]1COc2c(N3CCN(C)CC3)c(F)cc3c(=O)c(C(=O)OCc4cn(CCCCCCC(=O)NO)nn4)cn1c23` as the compound, how does the IC50 read?
**A.** > 100000 nM

**Q.** For `C[C@H]1COc2c(N3CCN(C)CC3)c(F)cc3c(=O)c(C(=O)NCc4cn(CCCCCCCC(=O)NO)nn4)cn1c23`, which IC50 is on record?
**A.** > 100000 nM

Each compound was assayed on MCF7 (assay: Antiproliferative activity against human MCF7 cells by CCK8 assay).
Type: functional, cell-based

**Q.** For `C[C@H]1COc2c(N3CCN(C)CC3)c(F)cc3c(=O)c(C(=O)NCc4cn(CCCCCC(=O)NO)nn4)cn1c23`, which IC50 is on record?
**A.** 300 to 12800 nM

**Q.** With `C[C@H]1COc2c(N3CCN(C)CC3)c(F)cc3c(=O)c(C(=O)OCc4cn(CCCCCCCC(=O)NO)nn4)cn1c23` as the compound, how does the IC50 read?
**A.** 300 to 12800 nM

**Q.** With `C[C@H]1COc2c(N3CCN(C)CC3)c(F)cc3c(=O)c(C(=O)OCc4cn(CCCCCCC(=O)NO)nn4)cn1c23` as the compound, how does the IC50 read?
**A.** 300 to 12800 nM

**Q.** `C[C@H]1COc2c(N3CCN(C)CC3)c(F)cc3c(=O)c(C(=O)NCc4cn(CCCCCCCC(=O)NO)nn4)cn1c23` was tested. Which IC50 did it give?
**A.** 300 to 12800 nM

Each compound was assayed on HeLa (assay: Antiproliferative activity against human HeLa cells by CCK8 assay).
Type: functional, cell-based

**Q.** How did the IC50 turn out when `C[C@H]1COc2c(N3CCN(C)CC3)c(F)cc3c(=O)c(C(=O)NCc4cn(CCCCCC(=O)NO)nn4)cn1c23` was run?
**A.** 300 to 12800 nM

**Q.** How did the IC50 turn out when `C[C@H]1COc2c(N3CCN(C)CC3)c(F)cc3c(=O)c(C(=O)OCc4cn(CCCCCCCC(=O)NO)nn4)cn1c23` was run?
**A.** 300 to 12800 nM

**Q.** `C[C@H]1COc2c(N3CCN(C)CC3)c(F)cc3c(=O)c(C(=O)OCc4cn(CCCCCCC(=O)NO)nn4)cn1c23` was tested. Which IC50 did it give?
**A.** 300 to 12800 nM

**Q.** How did the IC50 turn out when `C[C@H]1COc2c(N3CCN(C)CC3)c(F)cc3c(=O)c(C(=O)NCc4cn(CCCCCCCC(=O)NO)nn4)cn1c23` was run?
**A.** 300 to 12800 nM

These compounds were tested on PC-3 (assay: Antiproliferative activity against human PC3 cells by CCK8 assay).
Type: functional, cell-based

**Q.** How did the IC50 turn out when `C[C@H]1COc2c(N3CCN(C)CC3)c(F)cc3c(=O)c(C(=O)NCc4cn(CCCCCC(=O)NO)nn4)cn1c23` was run?
**A.** 300 to 12800 nM

**Q.** With `C[C@H]1COc2c(N3CCN(C)CC3)c(F)cc3c(=O)c(C(=O)OCc4cn(CCCCCCCC(=O)NO)nn4)cn1c23` as the compound, how does the IC50 read?
**A.** 300 to 12800 nM

**Q.** How did the IC50 turn out when `C[C@H]1COc2c(N3CCN(C)CC3)c(F)cc3c(=O)c(C(=O)OCc4cn(CCCCCCC(=O)NO)nn4)cn1c23` was run?
**A.** 300 to 12800 nM

**Q.** With `C[C@H]1COc2c(N3CCN(C)CC3)c(F)cc3c(=O)c(C(=O)NCc4cn(CCCCCCCC(=O)NO)nn4)cn1c23` as the compound, how does the IC50 read?
**A.** 300 to 12800 nM

Each compound was assayed on A549 (assay: Antiproliferative activity against human A549 cells by CCK8 assay).
Type: functional, cell-based

**Q.** For `C[C@H]1COc2c(N3CCN(C)CC3)c(F)cc3c(=O)c(C(=O)NCc4cn(CCCCCC(=O)NO)nn4)cn1c23`, which IC50 is on record?
**A.** 300 to 12800 nM

**Q.** For `C[C@H]1COc2c(N3CCN(C)CC3)c(F)cc3c(=O)c(C(=O)OCc4cn(CCCCCCCC(=O)NO)nn4)cn1c23`, which IC50 is on record?
**A.** 300 to 12800 nM

**Q.** Which IC50 does the source give for `C[C@H]1COc2c(N3CCN(C)CC3)c(F)cc3c(=O)c(C(=O)OCc4cn(CCCCCCC(=O)NO)nn4)cn1c23` here?
**A.** 300 to 12800 nM

**Q.** How did the IC50 turn out when `C[C@H]1COc2c(N3CCN(C)CC3)c(F)cc3c(=O)c(C(=O)NCc4cn(CCCCCCCC(=O)NO)nn4)cn1c23` was run?
**A.** 300 to 12800 nM
